A short description of one series: Dose finding studies. As to the method:
Female immunodeficient NMRI nude mice, from Janvier, France, received 5×10^6-10^7 cultured cancer cell in buffer/Matrigel (1:1) inoculated subcutaneously, until tumors were palpable and had reached the desired volume (for xenograft studies).
Animals were kept in cages (Macrolon Type-II wire-mesh) with temperature maintained at 22±1° C., relative humidity of 50 f 10% and an air change rate of 60-fold per hour. Mice were kept under a 12-hour light/12-hour dark, artificial light cycle. The animals were fed with autoclaved Ssniff NM (Soest, Germany), and had access to sterile filtered and acidified (pH 4.0) tap water which was changed twice weekly. Feed and water were provided ad libitum. […] The health of the animals was examined at the start of the experiment and twice per day during the experiment. Identification used: ear mark and cage labels. Starting on day 0, animals were weighed two or three times per week and mean body weight per group was related to the initial value in percent to calculate the body weight change (BWC). Tumor diameters were determined by a two-dimensional measurement with a caliper on the day of randomization (Day 0) and then twice or three times per week. Tumor volumes were calculated according to the following equation:
Tumor Vol [mm^3]=1 [mm]×w^2 [mm^2]×0.5, where “1” is the length and “w” is width of the tumor. The relative volume of an individual tumor on day X (RTVx) was calculated by dividing the absolute individual tumor volume [mm^3] of the respective tumor on day X (Tx) by the absolute individual tumor volume of the same tumor on the day of randomization multiplied by 100%. Schedules were applied to the extent that animal welfare policies allow. Termination of individual mice was carried out at tumor volume >1500 mm^3 (unilateral) or when ulceration was observed. Statistical comparison was performed with the Mann-Whitney U-test. Dose Finding Studies of Auristatin E and the Albumin-Binding Auristatin E Derivatives AE-Keto-Sulf07 and AE-Ester-Sulf07.
Stock solutions were prepared as follows: • 1) 3 mice per group, 26 g average weight on day of randomization: 0.3, 0.6 or 1.2 mg/kg dose auristatin E TFA salt (AE equiv.) dosed once weekly for 4 weeks on day 0, 6, 13, 20≡0.35-1.41 mg/kg≡7.1-28.3 μg/20 g mouse. Sample preparation: 8.5 mg weighed in a 50 mL vial dissolved in 30.0 mL 25/75 tert-butanol/10 mM sodium phosphate buffer, 5% sucrose—pH 7.0; 0.2-0.8 mL were aliquoted in 2 mL vials depending on the final desired final dose. The vials were frozen for 1 h at −40° C. and lyophilized at −20° C. over ˜36 h and then stoppered. On day of injection, the lyophilized samples were reconstituted with 0.8 mL of 10 mM sodium phosphate buffer, 20% propylene glycol—pH 7.0. • 2) 3 mice per group, 26 g average weight on day of randomization: 1.2 and 2.4 mg/kg AE-Keto-Sulf07 (AE equiv.) dosed twice weekly for 4 weeks ≡1.94-3.87 mg/kg≡38.7 and 77.4 μg/20 g mouse. Sample preparation: 11.0 mg weighed in a 30 mL vial dissolved in 14.2 mL 50/50 tert-butanol/10 mM sodium phosphate buffer, 5% sucrose—pH 7.0; 0.4-0.8 mL were aliquoted in 2 mL vials depending on the final desired final dose. The vials were frozen for 1 h at −40° C. and lyophilized at −20° C. over ˜36 h and then stoppered. On the day of injection, the lyophilized samples were reconstituted with 0.8 mL of 10 mM sodium phosphate buffer, 20% propylene glycol—pH 7.0. • 3) 3 mice per group, 26 g average weight on day of randomization: 1.2, 1.6 or 2.0 mg/kg AE-Ester-Sulf07 (AE equiv.) dosed twice weekly for 4 weeks on day≡2.18-3.64 mg/kg≡43.7-72.8 μg/20 g mouse. Sample preparation: 19.2 mg weighed in a 30 mL vial dissolved in 26.3 mL 50/50 tert-butanol/10 mM sodium phosphate buffer, 5% sucrose—pH 7.0; 0.48-0.8 mL were aliquoted in 2 mL vials depending on the final desired final dose. The vials were frozen for 1 h at −40° C. and lyophilized at −20° C. over ˜36 h and then stoppered.

For series [1], the system named is human ovarian carcinoma model A2780. The experiment in a line: Human ovarian carcinoma model A2780, large tumors. It is filed as in vivo, NMRI nude mice. The protocol:
Feed and water were provided ad libitum. […] Identification used: ear mark and cage labels. […] Tumor volumes were calculated according to the following equation: […]
The evaluation of auristatin E and the albumin-binding auristatin E derivative AE-Keto-Sulf07 in a human ovarian carcinoma model A2780 was carried out as described in the general procedure for cell-line-derived xenograft models.
The evaluation of auristatin E and the albumin-binding auristatin E derivative AE-Ester-Sulf07 in a human ovarian carcinoma model A2780 was carried out as described in the general procedure for cell-line-derived xenograft models.

Series [2] has as its system renal cell cancer model RXF631. The experiment in a line: Human renal cell cancer model RXF631, small tumors. Type of series: in vivo, NMRI nude mice. The text has this: Mice were kept under a 14-hour light/10-hour dark, artificial light cycle. The animals were fed with autoclaved Teklad Global 19% Protein Extruded Diet (T.2019S.12) from Envigo RMS SARL and had access to sterile filtered and acidified (pH 2.5) tap water which was changed twice weekly. Feed and water were provided ad libitum. […] Animals were routinely monitored twice daily on working days and daily on Saturdays and Sundays. Starting on day 0, animals were weighed twice a week. Relative body weights (RBW) of individual animals were calculated by dividing the individual absolute body weight on day X (BWx) by the individual body weight on the day of randomization multiplied by 100%. […] Tumor volumes were calculated according to the following equation: […]
Statistical analysis was only carried out if at least 50% of the initially randomized animals in a relevant group were still alive. Comparisons between test groups were carried out for the same days. By convention, p-values ≤0.05 indicate significance of tumor inhibition. Statistical calculations were performed using GraphPad Prism bioanalytic software (San Diego Calif. USA, www.graphpad.com).
The initial evaluation of auristatin E and the albumin-binding auristatin E derivative AE-Ester-Sulf07 in a human renal cell cancer model RXF631 was carried out as described in the general procedure for a patient-derived xenograft model.

The mark [3] stands for this setting: 1.9 mg/kg eight times twice weekly.

In the case of “2-(2-(1-(4-(((1S,2R)-2-((2R,3R)-3-((S)-1-((3R,4R,5S)-4-((S)-2-((R)-2-(dimethylamino)-3-methylbutanamido)-N,3-dimethylbutanamido)-3-methoxy-5-methylheptanoyl)pyrrolidin-2-yl)-3-methoxy-2-methylpropanamido)-1-phenylpropoxy)carbonyl)phenyl)ethylidene)hydrazine-1-carbonyl)-5-(6-(2,5-dioxo-2,5-dihydro-1H-pyrrol-1-yl)hexanamido)benzenesulfonic acid [AE-Ester-Sulf07]”, the “side effect compared with the other groups” value in the series “Dose finding studies” (4.0 mg/kg once weekly) was “lowest side effect”. Further, the body weight change result in the series “Dose finding studies” (2.0, 2.2, 2.4 mg/kg twice per week and 4.0, 4.4, 4.8 mg/kg once per week over four weeks) is listed as “No body weight change”. Besides, in “Dose finding studies” (all groups: 2.0, 2.2, 2.4 mg/kg twice per week and 4.0, 4.4, 4.8 mg/kg once per week), the “appearance of skin irritation” value lay within 9 to 14 days. For the same compound, in “Dose finding studies” (up to 2.0 mg/kg dosed twice weekly for four weeks), the tolerability result is reported as “no evident sign of toxicity”. For the same compound, the animals lost entry in series [1] (setting [3]) was “four animals had to be removed from the study due to tumor necrosis”; in series [2] (2.2-3.0 mg/kg, on day 20, 43 and 66), “Two mice died, and one had to be sacrificed for general bad conditions”. In addition, the body weight entry in series [1] (setting [3]) was “no sign of body weight loss compared to the control”. In addition, the tumor response entry is given as “partial remission (partial remission >10-50%)” in series [1] (1.9 mg/kg eight times twice weekly, day 19 until day 51); “complete remission (complete remission <10%)” in series [1] (1.9 mg/kg eight times twice weekly, day 54 until end of study on day 103); “complete remission (complete remission <10%)” in series [2] (2.2 mg/kg (3.0 mg/kg on day 15 and 19) twice weekly, day 24 to day 53). Besides, the “p, antitumor efficacy versus auristatin E” value was less than 0.001 in series [1] (1.9 mg/kg versus auristatin E 0.3 mg/kg, eight times twice weekly, day 37 to day 40); less than 0.05 in series [2] (2.2 mg/kg (3.0 mg/kg on injection day 15 and 19) versus auristatin E 0.3 mg/kg, twice weekly). In series [2] (2.2 mg/kg (3.0 mg/kg on day 15 and 19) twice weekly), this compound showed a minimum tumor volume of 1 mm^3. Also, the side effects result in series [2] (2.2-3.0 mg/kg twice weekly) was “Wounds due to biting and scratching were also observed starting from day 17”. Besides, the “transient body weight loss” value in series [2] (2.2-3.0 mg/kg, reached on day 31) came out at 9%.

As to `CC[C@H](C)[C@@H]([C@@H](CC(=O)N1CCC[C@H]1[C@H](OC)[C@@H](C)C(=O)N[C@H](C)C(=NNC(=O)c1ccc(NC(=O)CCCCCN2C(=O)C=CC2=O)cc1S(=O)(=O)O)c1ccccc1)OC)N(C)C(=O)[C@@H](NC(=O)[C@H](C(C)C)N(C)C)C(C)C` [AE-Keto-Sulf07, 2-(2-((R)-2-((2R,3R)-3-((S)-1-((3R,4S,5S)-4-((S)-2-((S)-2-(dimethylamino)-3-methylbutanamido)-N,3-dimethylbutanamido)-3-methoxy-5-methylheptanoyl)pyrrolidin-2-yl)-3-methoxy-2-methylpropanamido)-1-phenylpropylidene)hydrazine-1-carbonyl)-5-(6-(2,5-dioxo-2,5-dihydro-1H-pyrrol-1-yl)hexanamido)benzenesulfonic acid], the tolerability entry is given as “above the MTD” in the series “Dose finding studies” (6.5 mg/kg biweekly in later xenograft studies, treatment stopped after five injections); “well tolerated” in “Dose finding studies” (all doses tested (1.2 and 2.4 mg/kg), injected eight times on a biweekly schedule). In the series “Dose finding studies” (biweekly schedule), this compound gave a safe dose of 4.5 mg/kg. In addition, the body weight result in series [1] (4.5 mg/kg eight times twice weekly) is given as “only a slightly reduced body weight growth compared to the control”. Moreover, the tumor response entry in series [1] (4.5 mg/kg eight times twice weekly, day 26 until end of study on day 103) was “complete remission (complete remission <10%)”. The “p, antitumor effect versus auristatin E” value in series [1] (4.5 mg/kg versus auristatin E 0.3 mg/kg, eight times twice weekly, day 22 to day 40) is given as less than 0.001.

Turning to `CC[C@H](C)[C@@H]([C@@H](CC(=O)N1CCC[C@H]1[C@H](OC)[C@@H](C)C(=O)N[C@H](C)[C@@H](O)c1ccccc1)OC)N(C)C(=O)[C@@H](NC(=O)[C@H](C(C)C)N(C)C)C(C)C` [auristatin E], the tolerability entry was “well tolerated” in “Dose finding studies” (0.3 mg/kg once weekly for 4 weeks); “high toxicity” in “Dose finding studies” (0.6 mg/kg once weekly, no animal survived after the second injection); “high toxicity” in “Dose finding studies” (1.2 mg/kg once weekly, no animal survived after the first injection). Besides, the “maximum tolerated dose (MTD)” value in “Dose finding studies” (injected biweekly for four weeks (total of eight injections)) is 0.3 mg/kg. Also, in series [1] (0.3 mg/kg eight times twice weekly), the antitumor effect result is given as “did not achieve any antitumor effect”. The tumor response result in series [2] (0.3 mg/kg twice weekly, up to day ˜40) is listed as “stable disease (stable disease >75-125%)”.

Source of the values: patent publication US11377473B2, “Albumin-binding prodrugs of auristatin E derivatives” (priority 2017, dated 2022).
